Assays:
Experiment in all cases: normalised response (% of control), CellTiter-Glo; higher = more viable cells (100 = DMSO, 0 = benzethonium chloride kill control)
Details in all cases: incubation time: 72 h
MDA-MB-436 = test system: MDA-MB-436
Summary of the method: (§1)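 Breast cancer cell lines, seeded at 20 µl suspension per well, were incubated for 72 h in 384-well plates containing compound at 5 concentrations. These concentrations rose in 10-fold steps over a 10,000-fold range set for each compound. CellTox Green fluorescence (485/520 nm) was read, then CellTiter-Glo luminescence after 10 min at room temperature, and each plate was normalised to 0.1 % DMSO (100) and a positive kill control (0). Values are normalised signals, each at one concentration.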

HCC1143 = test system: HCC1143
Summary of the method: as §1

BT-549 = test system: BT-549
Summary of the method: as §1

MDA-MB-453 = test system: MDA-MB-453
Summary of the method: as §1

CAL-148 = test system: CAL-148
Summary of the method: as §1

DU-4475 = test system: DU-4475
Summary of the method: as §1

MDA-MB-231 = test system: MDA-MB-231
Summary of the method: as §1

SK-BR-3 = test system: SK-BR-3
Summary of the method: as §1

BT-474 = test system: BT-474
Summary of the method: as §1

MCF-10A = test system: MCF-10A
Summary of the method: as §1

MDA-MB-468 = test system: MDA-MB-468
Summary of the method: as §1

HDQ-P1 = test system: HDQ-P1
Summary of the method: as §1

Hs578T = test system: Hs578T
Summary of the method: as §1

CAL-120 = test system: CAL-120
Summary of the method: as §1

CAL-85-1 = test system: CAL-85-1
Summary of the method: as §1

MFM-223 = test system: MFM-223
Summary of the method: as §1

HCC1937 = test system: HCC1937
Summary of the method: as §1

CAL-51 = test system: CAL-51
Summary of the method: as §1

HCC1599 = test system: HCC1599
Summary of the method: as §1

| SMILES | normalised response (MDA-MB-436) | normalised response (HCC1143) | normalised response (BT-549) | normalised response (MDA-MB-453) | normalised response (CAL-148) | normalised response (DU-4475) | normalised response (MDA-MB-231) | normalised response (SK-BR-3) | normalised response (BT-474) | normalised response (MCF-10A) | normalised response (MDA-MB-468) | normalised response (HDQ-P1) | normalised response (Hs578T) | normalised response (CAL-120) | normalised response (CAL-85-1) | normalised response (MFM-223) | normalised response (HCC1937) | normalised response (CAL-51) | normalised response (HCC1599) |
| --- | --- | --- | --- | --- | --- | --- | --- | --- | --- | --- | --- | --- | --- | --- | --- | --- | --- | --- | --- |
| O=C(Cc1ccc(-c2ccc(OCCN3CCOCC3)cc2)cn1)NCc1ccccc1 [KX2-391] (1 nM) | 102% | 105% | 105% | 113% | 107% | 101% | 107% | 120% | 105% | 121% | 102% | 100% | 103% | 97.2% | 95.2% | 106% | 99.4% | 107% | 83.3% |
| COc1cc2c(NC3CCN(C(C)C)CC3)nc(C3CCCCC3)nc2cc1OCCCN1CCCC1 [UNC0638] (1 nM) | 90% | 94.6% | 103% | 95.6% | 86.8% | 88.9% | 93.3% | 90.8% | 91.1% | 84.2% | 90.5% | 103% | 99.7% | 104% | 97.4% | 87.1% | 95.3% | 117% | 76.7% |
| O=C(O)CCCCC(CCSCc1ccccc1)SCc1ccccc1 (stereo not given) [CPI-613] (10 nM) | 105% | 108% | 89.8% | 105% | 103% | 104% | 96.2% | 109% | 105% | 112% | 101% | 102% | 96.6% | 98.7% | 97.8% | 105% | 99% | 95.5% | 118% |
| CNC(=O)c1cc(Oc2ccc(NC(=O)Nc3cc(C(C)(C)C)nn3-c3ccc4ncccc4c3)c(F)c2)ccn1 [Rebastinib] (0.1 nM) | 97.9% | 98.3% | 95.8% | 102% | 104% | 101% | 101% | 113% | 99.5% | 109% | 97.1% | 105% | 103% | 97.7% | 96.6% | 101% | 107% | 122% | 105% |
| COc1cc2c(Oc3ccc4[nH]c(C)cc4c3F)ncnc2cc1OCCCN1CCCC1 [Cediranib] (1 nM) | 97.8% | 106% | 101% | 99.7% | 106% | 102% | 101% | 99.8% | 104% | 104% | 113% | 98.6% | 97% | 105% | 109% | 108% | 94.7% | 131% | 93.9% |

— the supplement of paper PMC4862054
